Assays:
[1] = tested on: MS751 cells; assay: MTT cell proliferation assay, MS751 cells; type: cell-based, human; conditions: approximately 64-72 hours incubation
Procedure: (§1) The MTT cell proliferation assay was used to study the cytotoxic properties of the compounds. The assay was performed according to the method described by Roche Molecular Biochemicals, with minor modifications. The assay is based on the cleavage of the tetrazolium salt, MTT, in the presence of an electron-coupling reagent. The water-insoluble formazan salt produced must be solubilized in an additional step. Cells grown in a 96-well tissue culture plate were incubated with the MTT solution for approximately 4 hours. After this incubation period, a water-insoluble formazan dye formed. After solubilization, the formazan dye was quantitated using a scanning multi-well spectrophotometer (ELISA reader). […] The cells were seeded at 5,000-10,000 cells in each well of 96-well plate in 100 μL of fresh culture medium and were allowed to attach overnight. The stock solutions of the compounds were diluted in 100 μL cell culture medium to obtain eight concentrations of each test compound, ranging from 1 nM to 30 μM. […] All optical densities were measured at 490 nm using a Vmax Kinetic Microplate Reader (Molecular Devices). In most cases, the assay was performed in duplicate and the results were presented as a mean percent inhibition to the negative control±SE. The following formula was used to calculate the percent of inhibition: Inhibition (%)=(1-(ODo/OD))×100.
(§2) The compounds were tested against MS751, Z138 and 3T3 cells. The MS751 cell line is derived from a metastasis to lymph node of human cervix from a patient diagnosed with squameous cell carcinoma of the cervix. The Z138 cell line is a mature B-cell acute lymphoblastic leukemia cell line derived from a patient with chronic lymphocytic leukemia. 3T3 cells are standard fibroblast cells; they were originally isolated from Swiss mouse embryo tissue.

[2] = tested on: 3T3 cells; assay: MTT cell proliferation assay, 3T3 cells; type: cell-based, mouse
Procedure: as §1, §2

[3] = tested on: Z138 cells; assay: MTT cell proliferation assay, Z138 cells; type: cell-based, human; conditions: approximately 64-72 hours incubation
Procedure: as §1, §2

[4] = tested on: Molt-4 T-ALL cancer xenograft; NCI-H520 lung cancer xenograft; assay: Xenograft models in mice (Molt-4 T-ALL in SCID mice; NCI-H520 lung cancer in nu/nu mice); type: in vivo, mouse; conditions: Molt-4 xenograft 10 and 20 mg/kg PO BID; H520 xenograft 100 mg/kg PO BID
Procedure: In this study, the impact of the compound of Example 2 on tumor growth was tested using the Molt-4 T-ALL cancer xenograft model in SCID mice. MOLT 4 (CRL-1582) acute lymphoblastic leukemia cells were obtained from ATCC. These cells were grown in RPMI-1640 medium supplemented with 10% fetal bovine serum, 1% penicillin and streptomycin. Cells were sub-cultured by transferring floating cells to a new flask and trypsinizing adherent cells before subculturing at a ratio of 1:4. Molt-4 cells were harvested by centrifugation and counted using a hemocytometer. Cells were resuspended in PBS at a 5×10^7 cells per mL. Cells were placed on ice and mixed with an equal volume of Matrigel (BD Biosciences CB-40234). This mixture was kept on ice and injected into the left flank of mice in a volume of […], equivalent to 5×10^6 cells per mouse. Twenty-four (24) CB-17 SCID mice were inoculated subcutaneously in the left flank Molt-4 cells. Treatment was initiated when the tumors reached a mean volume of ˜135 mm^3. […] Animal weights and conditions were recorded daily, and tumors were measured on Mondays, Wednesdays and Fridays.
In this study, the impact of the compound of Example 2 on tumor growth was tested using the NCI-H520 lung cancer xenograft model in nu/nu mice. […] Animal weights and conditions were recorded daily, and tumors were measured on Mondays, Wednesdays and Fridays.

[5] = Plasma protein binding; type: in vitro ADME; conditions: human plasma
[6] = Homo sapiens, MS751, MS751 cells
[7] = Mus musculus, NIH3T3, approximately 64-72 hours incubation
[8] = Homo sapiens, Z-138, Z138 cells
[9] = approximately 64-72 hours incubation

C[C@@]1(F)CCN(C(=O)c2ccc(-c3cc(-c4ccc(F)cc4)c4oc(CNC(=O)/C=C/c5ccc(N)nc5)cc4c3)cc2)C1 [Example 3, (R,E)-3-(6-aminopyridin-3-yl)-N-((5-(4-(3-fluoro-3-methylpyrrolidine-1-carbonyl)phenyl)-7-(4-fluorophenyl)benzofuran-2-yl)methyl)acrylamide]
IC50 [1, 6]: 0.09 µM
IC50 [2, 7]: > 10 µM
IC50 [3, 8]: 0.02 µM

CC1(F)CCN(C(=O)c2ccc(-c3cc(C(F)(F)F)c4oc(CNC(=O)/C=C/c5ccc(N)nc5)cc4c3)cc2)C1 (single isomer, unassigned) [Example X-4, (E)-3-(6-aminopyridin-3-yl)-N-((5-(4-(3-fluoro-3-methylpyrrolidine-1-carbonyl)phenyl)-7-(trifluoromethyl)benzofuran-2-yl)methyl)acrylamide]
IC50 ([1]; MS751 cells): 2.1 µM
IC50 [2, 9]: > 10 µM
IC50 ([3]; Z138 cells): 1.5 µM

CC1(F)CCN(C(=O)c2ccc(-c3cc(-c4ccc(F)cc4)c4oc(CNC(=O)/C=C/c5ccc(N)nc5)cc4c3)cc2)C1 (racemic) [Example 1, (±)-(E)-3-(6-aminopyridin-3-yl)-N-((5-(4-(3-fluoro-3-methylpyrrolidine-1-carbonyl)phenyl)-7-(4-fluorophenyl)benzofuran-2-yl)methyl)acrylamide]
IC50 [1, 6]: 0.03 µM
IC50 [2, 7]: 1.26 µM
IC50 [3, 8]: < 0.005 µM

C[C@]1(F)CCN(C(=O)c2ccc(-c3cc(-c4ccc(F)cc4)c4oc(CNC(=O)/C=C/c5ccc(N)nc5)cc4c3)cc2)C1 [Example 2, (S,E)-3-(6-aminopyridin-3-yl)-N-((5-(4-(3-fluoro-3-methylpyrrolidine-1-carbonyl)phenyl)-7-(4-fluorophenyl)benzofuran-2-yl)methyl)acrylamide]
efficacy in vivo (tumor growth) [4]: demonstrated efficacy in vivo
IC50 [1, 6]: 0.008 µM
IC50 [2, 7]: 1.18 µM
Fraction of Bound [5]: 95.2%
IC50 [3, 8]: < 0.005 µM

CC1(F)CCN(C(=O)c2ccc(-c3cc(C(F)(F)F)c4oc(CNC(=O)/C=C/c5ccc(N)nc5)cc4c3)cc2)C1 (single isomer, unassigned) [Example X-3, (E)-3-(6-aminopyridin-3-yl)-N-((5-(4-(3-fluoro-3-methylpyrrolidine-1-carbonyl)phenyl)-7-(trifluoromethyl)benzofuran-2-yl)methyl)acrylamide]
IC50 ([1]; MS751 cells): 0.4 µM
IC50 [2, 7]: > 10 µM
IC50 ([3]; Z138 cells): 0.4 µM

Nc1ccc(/C=C/C(=O)NCc2cc3cc(-c4ccc(C(=O)N5CCC(F)(F)CC5)cc4)cc(-c4ccc(F)cc4)c3o2)cn1 [Example X-1, (E)-3-(6-aminopyridin-3-yl)-N-((5-(4-(4,4-difluoropiperidine-1-carbonyl)phenyl)-7-(4-fluorophenyl)benzofuran-2-yl)methyl)acrylamide]
IC50 [1, 6]: 0.05 µM
IC50 [2, 7]: 3.6 µM
Fraction of Bound [5]: 100%
IC50 [3, 8]: 0.018 µM

CC1(F)CCN(C(=O)c2ccc(-c3cc(C(F)(F)F)c4oc(CNC(=O)/C=C/c5ccc(N)nc5)cc4c3)cc2)C1 (single isomer, unassigned) [Example X-2, (E)-3-(6-aminopyridin-3-yl)-N-((5-(4-(3-fluoro-3-methylpyrrolidine-1-carbonyl)phenyl)-7-(trifluoromethyl)benzofuran-2-yl)methyl)acrylamide]
IC50 ([1]; MS751 cells): 0.52 µM
IC50 [2, 9]: > 10 µM
IC50 ([3]; Z138 cells): 0.24 µM
